Laboratory results: patent US11229651B2, “Prophylaxis and treatment of a neurodegenerative disease not based on a protein-folding disorder” (Eberhard Karls Universität Tübingen Medizinische Fakultät, priority 2013, dated 2022)

Tests used:
[1] = tested on: photoreceptors of cultivated retinas from rats mutated in the rhodopsin (P23H); experiment: TUNEL assay on retinal organ cultures from P23H rhodopsin transgenic rats; assay type: cell-based, rat; conditions: for amount of dying photoreceptors (percentage of TUNEL positive cells in the outer nuclear layer (ONL) vs total nuclei in the ONL): P23H mutant retinal cultures, PN9 + 6 days in vitro, compared with untreated and DMSO treated controls, FIG. 3A; for survival of photoreceptors in radial sections: P23H retinal organ cultures, compared with DMSO control, FIG. 2
Source text: Homozygous P23H rhodopsin transgenic rats (produced by Chrysalis DNX Transgenic Sciences, Princeton, N.J., United States of America) of the line Tg (P23H) 1 Lay (P23H-1) were kindly provided by Dr. M. M. LaVail (University of California, San Francisco, Calif., United States of America) and bred in the Animal Housing Facility in the Center for Ophthalmology in Tübingen. Heterozygous P23H rats were employed, obtained by crossing with wt, CD rats (CDH IGS rat; Charles River, Germany) to reflect the genetic background of autosomal-dominant retinitis pigmentosa (ADRP).
Retinas of postnatal day 9 (PN9) of P23H transgenic rats were cultivated for six days (DIVE) that correspond to PN15, i.e. the peak of degeneration in in vivo aged-matched mutants. The day of birth was denoted as P0. For radial sections, cultures were immersed in 4% paraformaldehyde in 0.1 M phosphate buffer (PB; pH 7.4) for 30 minutes at 4° C. and embedded in cryomatrix (Tissue-Tek, Leica, Bensheim, Germany). The radial sections (15 μm thick) were processed immediately or stored at […]
The retinas were isolated from nine-days-old P23H rats with the retinal pigment epithelium (RPE) attached essentially as described previously in Caffe et al. (2001), “Mouse retina explants after long-term culture in serum free medium”, J. Chem. Neuroanat. 22(4): 263-73, and Arango-Gonzalez et al. (2010), “In vivo and in vitro devel-opment of S- and M-cones in rat retina”, Invest. Ophthalmol. Vis. Sci. 2010 October; 51(10):5320-7. Briefly, the eyes of decapitated rats were enucleated in aseptic environment and pretreated with 12% proteinase K (ICN Biomedicals Inc., OH, United States of America) for 15 minutes at 37° C. in R16 serum-free culture medium (Invitrogen Life Technologies, Paisley, United Kingdom). The enzymatic digestion was stopped by the addition of 20% fetal bovine serum. Retina and RPE were dissected and four radial sections were made to flatten the tissue. The tissue was transferred to a 0.5 μm polycar-bonate membrane (Corning Life Sciences, Lowell, Mass., United States of America), with the RPE facing the membrane. The inserts were placed into six well culture plates and incubated with R16 nutrient medium at 36.5° C. The retina was left in R16 culture medium without a treatment for one day to allow an adaptation to the culture conditions. The medium was changed at DIV1, DIV3, and DIV5, and the new medium either contained ML240 (1 μM or […]) or EerII (1 μM or 20 μM). Both components were pre-diluted in dimethyl sulfoxide (DMSO, Sigma). For controls, the same amount of DMSO (0.05% or 1% respectively) was diluted in culture medium. The cultures were fixed at DIVE and analyzed as radial sections. […]

[2] = tested on: photoreceptors of cultivated retinas from wild-type rats; experiment: TUNEL assay on retinal organ cultures from wild-type rats; assay type: cell-based, rat; conditions: for reduction of percentage of TUNEL positive cells in the ONL: WT cultivated retinas, compared with controls, FIG. 3B, **p<0.01, ***p<0.001; for survival of photoreceptors in radial sections: wild-type retinal organ cultures, compared with DMSO control, FIG. 2

Row | SMILES | amount of dying photoreceptors (percentage of TUNEL positive cells in the outer nuclear layer (ONL) vs total nuclei in the ONL) [1] | survival of photoreceptors in radial sections [1] | reduction of percentage of TUNEL positive cells in the ONL [2] | survival of photoreceptors in radial sections [2]
1 | CC1(C)C(N(O)C(=O)Nc2ccc(Cl)cc2)N(c2ccc(Cl)cc2)C(=O)N1CC(=O)N/N=C/C=C/c1ccc([N+](=O)[O-])o1 (centres unmarked) [EerI, Eeyarestatin I] | significantly reduce | significant increase of the survival | not significantly | significant increase of the survival
2 | COc1cccc2c(NCc3ccccc3)nc(-n3c(N)nc4ccccc43)nc12 [ML240] | significantly reduce | significant increase of the survival | significantly | significant increase of the survival
